Reference: PubChem BioAssay (NCI)
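The compound was tested at five concentrations on cells cultured in 96-well plates, with a 48-hour exposure period. GI50: concentration for 50% inhibition of growth. TGI: total growth inhibition.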

Key:
Assay in all cases: inhibition of tumour cell growth, NCI panel, 48 h
OVCAR-4 ovarian = test system: OVCAR-4 ovarian
MCF7 breast = test system: MCF7 breast
HT29 colon = test system: HT29 colon
NCI-H522 lung = test system: NCI-H522 lung
786-0 renal = test system: 786-0 renal
HL-60(TB) leukemia = test system: HL-60(TB) leukemia
UACC-62 melanoma = test system: UACC-62 melanoma
BT-549 breast = test system: BT-549 breast
DU-145 prostate = test system: DU-145 prostate
SNB-19 CNS = test system: SNB-19 CNS
MALME-3M melanoma = test system: MALME-3M melanoma
SN12C renal = test system: SN12C renal
A549 NSCLC = test system: A549 NSCLC
SK-OV-3 ovarian = test system: SK-OV-3 ovarian
A498 renal = test system: A498 renal
RXF 393 renal = test system: RXF 393 renal
T-47D breast = test system: T-47D breast
SF-539 CNS = test system: SF-539 CNS
OVCAR-5 ovarian = test system: OVCAR-5 ovarian
SK-MEL-5 melanoma = test system: SK-MEL-5 melanoma
OVCAR-8 ovarian = test system: OVCAR-8 ovarian
ACHN renal = test system: ACHN renal
SR leukemia = test system: SR leukemia
COLO 205 colon = test system: COLO 205 colon
MDA-MB-435 = test system: MDA-MB-435
MDA-MB-231 breast = test system: MDA-MB-231 breast
OVCAR-3 ovarian = test system: OVCAR-3 ovarian
TK-10 renal = test system: TK-10 renal
HCT-116 colon = test system: HCT-116 colon
HCT-15 colon = test system: HCT-15 colon
M14 melanoma = test system: M14 melanoma
UACC-257 melanoma = test system: UACC-257 melanoma
U251 CNS = test system: U251 CNS
EKVX NSCLC = test system: EKVX NSCLC
HOP-62 NSCLC = test system: HOP-62 NSCLC
SNB-75 CNS = test system: SNB-75 CNS
IGROV1 ovarian = test system: IGROV1 ovarian
SK-MEL-2 melanoma = test system: SK-MEL-2 melanoma
NCI-H226 lung = test system: NCI-H226 lung
SW-620 colon = test system: SW-620 colon
UO-31 renal = test system: UO-31 renal
KM12 colon = test system: KM12 colon
LOX IMVI melanoma = test system: LOX IMVI melanoma
NCI-H23 lung = test system: NCI-H23 lung
SK-MEL-28 melanoma = test system: SK-MEL-28 melanoma
SF-268 CNS = test system: SF-268 CNS

Nc1nc2ccccc2c2[nH]c3ccccc3c12
GI50 (OVCAR-4 ovarian): 1500 nM
TGI (OVCAR-4 ovarian): 3520 nM
GI50 (MCF7 breast): 1190 nM
TGI (MCF7 breast): 2550 nM
GI50 (HT29 colon): 509 nM
TGI (HT29 colon): 1930 nM
GI50 (NCI-H522 lung): 901 nM
TGI (NCI-H522 lung): 2140 nM
GI50 (786-0 renal): 1120 nM
TGI (786-0 renal): 2610 nM
GI50 (HL-60(TB) leukemia): 1980 nM
TGI (HL-60(TB) leukemia): 5730 nM
GI50 (UACC-62 melanoma): 13600 nM
TGI (UACC-62 melanoma): 27300 nM
GI50 (BT-549 breast): 1260 nM
TGI (BT-549 breast): 2580 nM
GI50 (DU-145 prostate): 1940 nM
TGI (DU-145 prostate): 10500 nM
GI50 (SNB-19 CNS): 1100 nM
TGI (SNB-19 CNS): 3710 nM
GI50 (MALME-3M melanoma): 1610 nM
TGI (MALME-3M melanoma): 3190 nM
GI50 (SN12C renal): 1240 nM
TGI (SN12C renal): 2970 nM
GI50 (A549 NSCLC): 1090 nM
TGI (A549 NSCLC): 2370 nM
GI50 (SK-OV-3 ovarian): 4910 nM
TGI (SK-OV-3 ovarian): 18900 nM
GI50 (A498 renal): 1160 nM
TGI (A498 renal): 2420 nM
GI50 (RXF 393 renal): 311 nM
TGI (RXF 393 renal): 1480 nM
GI50 (T-47D breast): 1210 nM
TGI (T-47D breast): 2910 nM
GI50 (SF-539 CNS): 1760 nM
TGI (SF-539 CNS): 3370 nM
GI50 (OVCAR-5 ovarian): 1840 nM
TGI (OVCAR-5 ovarian): 4110 nM
GI50 (SK-MEL-5 melanoma): 1640 nM
TGI (SK-MEL-5 melanoma): 3010 nM
GI50 (OVCAR-8 ovarian): 985 nM
TGI (OVCAR-8 ovarian): 2160 nM
GI50 (ACHN renal): 485 nM
TGI (ACHN renal): 1790 nM
GI50 (SR leukemia): 640 nM
TGI (SR leukemia): 4800 nM
GI50 (COLO 205 colon): 1070 nM
TGI (COLO 205 colon): 2330 nM
GI50 (MDA-MB-435): 938 nM
TGI (MDA-MB-435): 3160 nM
GI50 (MDA-MB-231 breast): 1220 nM
TGI (MDA-MB-231 breast): 2570 nM
GI50 (OVCAR-3 ovarian): 1420 nM
TGI (OVCAR-3 ovarian): 4370 nM
GI50 (TK-10 renal): 1570 nM
TGI (TK-10 renal): 4180 nM
GI50 (HCT-116 colon): 499 nM
TGI (HCT-116 colon): 1830 nM
GI50 (HCT-15 colon): 671 nM
TGI (HCT-15 colon): 2430 nM
GI50 (M14 melanoma): 1600 nM
TGI (M14 melanoma): 2950 nM
GI50 (UACC-257 melanoma): 1640 nM
TGI (UACC-257 melanoma): 2990 nM
GI50 (U251 CNS): 1200 nM
TGI (U251 CNS): 2430 nM
GI50 (EKVX NSCLC): 3190 nM
TGI (EKVX NSCLC): 11600 nM
GI50 (HOP-62 NSCLC): 1130 nM
TGI (HOP-62 NSCLC): 2440 nM
GI50 (SNB-75 CNS): 5490 nM
TGI (SNB-75 CNS): 16400 nM
GI50 (IGROV1 ovarian): 806 nM
TGI (IGROV1 ovarian): 2420 nM
GI50 (SK-MEL-2 melanoma): 1540 nM
TGI (SK-MEL-2 melanoma): 2880 nM
GI50 (NCI-H226 lung): 9740 nM
TGI (NCI-H226 lung): 37200 nM
GI50 (SW-620 colon): 384 nM
TGI (SW-620 colon): 1960 nM
GI50 (UO-31 renal): 1310 nM
TGI (UO-31 renal): 2610 nM
GI50 (KM12 colon): 1040 nM
TGI (KM12 colon): 3260 nM
GI50 (LOX IMVI melanoma): 1050 nM
TGI (LOX IMVI melanoma): 2280 nM
GI50 (NCI-H23 lung): 1370 nM
TGI (NCI-H23 lung): 2860 nM
GI50 (SK-MEL-28 melanoma): 1790 nM
TGI (SK-MEL-28 melanoma): 3190 nM
GI50 (SF-268 CNS): 1970 nM
TGI (SF-268 CNS): 7230 nM
